{"source": "patent US8933015B2", "about": "“Macrocyclic inhibitors of flaviviridae viruses” (Gilead Sciences, Inc., priority 2010, dated 2015)", "conditions": "from C=CCC[C@H](CC(=O)N[C@H](C(=O)N[C@@H](Cc1cccc(O[Si](C)(C)C(C)(C)C)c1)C(=O)N1CCC[C@@H](C(=O)O[C@H](C)c2cccc(C=C)c2)N1)C(C)C)OC; rcm bond; 22-membered ring; Hoveyda-Grubbs II; DCE; 2.63 mM; 80.0 °C; 1.5 h", "data": [{"smiles": "CO[C@@H]1CC/C=C/c2cccc(c2)[C@@H](C)OC(=O)[C@@H]2CCCN(N2)C(=O)[C@H](Cc2cccc(O[Si](C)(C)C(C)(C)C)c2)NC(=O)[C@H](C(C)C)NC(=O)C1", "values": [{"measurement": "ring closure, isolated yield", "result": 46, "unit": "%"}]}]}
